Reference: US10550080B2 (BRISTOL-MYERS SQUIBB COMPANY, priority 2016, dated 2020)

Columns and labels:
[1] = target: NaV1.7 (Homo sapiens (Human), UniProt Q15858); test: Automated electrophysiology, IonWorks Barracuda population patch clamp, NaV1.7 current (inactivated-state protocol); assay type: cell-based; conditions: HEK 293 cells expressing NaV1.7; 600 sec compound incubation; read-out: NaV1.7 Barra IC50
Method: (§1) Automated Electrophysiology: Ion Works Barracuda population patch clamp (PPC). PPC measurements were performed using an IonWorks Barracuda instrument (Molecular Devices Corporation, Union City, Calif.) using either PatchPlate™ PPC substrates (Molecular Devices Corporation) with 64 apertures per well. The ability to average currents from 64 recordings from each well greatly improves data consistency and recording success rates in the measurement of NaV1.7 mediated ionic currents. Calculated leak current was digitally subtracted from the total cell NaV1.7 current for each sample point acquired.
(§2) NaV1.7 currents were elicited by a voltage clamp protocol designed to bias the NaV1.7 channels to their inactivated state as follows. From holding potential of −60 mV cells were briefly hyperpolarized to −100 mV for 1.25 sec, then stepped to −20 mV for 20 sec to inactivate the channels. This was followed by a relatively brief hyperpolarization to −100 mv for 300 ms, then a 20 msec test pulse to −20 mV to elicit the NaV1.7 current used to measure the pharmacology of all test compounds. Compounds were incubated for 600 sec between the pre- and post-compound reads. The external recording solution used was (in mM) 137 NaCl, 4 KCl, 1 MgCl2, 1.8 CaCl2, 10 Hepes, 10 glucose, pH to 7.4 with NaOH, and the internal solution used was (in mM) 100 K-gluconate, 40 KCl, 3.2 zMgCl2, 5 EGTA, 10 HEPES pH to 7.2 with KOH. The same solutions were used to record NaV1.5 currents, with the following voltage clamp protocol. NaV1.5 currents were elicited by a voltage clamp protocol designed to bias the NaV1.5 channels to their inactivated state as follows. From holding potential of −40 mV cells were briefly hyperpolarized to −100 mV for 300 ms, then stepped to −10 mV for 20 sec to inactivate the channels. This was followed by a relatively brief hyperpolarization to −100 mv for 30 ms, then a 20 msec test pulse to −10 mV to elicit the NaV1.5 current used to measure the pharmacology of all test compounds.
(§3) HEK 293 cells expressing NaV1.7 and NaV1.5 channels, were used (Essen Biosciences, Ann Arbor, Mich.). Cells were cultured in T-175 flasks and passaged every 2 to 3 days at 1:3 to 1:6 seeding density dilutions. Cells were grown to 70% to 90% confluence in a flask and removed from the incubator (37° C., 5% CO2) 1 to 3 days after plating. Growth medium was aspirated from the culture flasks. Cells were gently rinsed with 10 ml of PBS (Catalog number: 14190144, Gibco) to remove residual media. Next a total of 2 mL TrypLE (Gibco) solution was added, and the flasks containing cells were sat for 3 min at RT, after which, the cells became visibly rounded and were easily dislodged from the bottom of the flask with a few brief taps on a solid surface. A total of 8 mL of media was added to the flask to inactivate the TrypLE, and the mixture was centrifuged at 910 rpm for 4 min. The cell supernatant was decanted, and the cell pellets were resuspended in 5-6 mL of external solution followed by gentle triturations using a 10 ml pipette, and transferred to a 15 ml conical tube and immediately brought to the IW Barracuda instrument.
(§4) Peak membrane currents were analyzed with IW Barracuda software and exported to Excel for further analysis. Concentration response curve fitting was performed with BMS in-house software. IC50 values were obtained by fits of the Hill equation to the average percent inhibition data plotted versus compound concentration. […] Results are reported in Table 1 (NaV1.7 Barra IC50 in nM and NaV1.5 Barra IC50 in nM).

[2] = target: NaV1.5 (Homo sapiens (Human), UniProt Q14524); test: Automated electrophysiology, IonWorks Barracuda population patch clamp, NaV1.5 current (inactivated-state protocol); assay type: cell-based; conditions: HEK 293 cells expressing NaV1.5; read-out: NaV1.5 Barra IC50
NaV1.5, sequence (Q14524 whole entry): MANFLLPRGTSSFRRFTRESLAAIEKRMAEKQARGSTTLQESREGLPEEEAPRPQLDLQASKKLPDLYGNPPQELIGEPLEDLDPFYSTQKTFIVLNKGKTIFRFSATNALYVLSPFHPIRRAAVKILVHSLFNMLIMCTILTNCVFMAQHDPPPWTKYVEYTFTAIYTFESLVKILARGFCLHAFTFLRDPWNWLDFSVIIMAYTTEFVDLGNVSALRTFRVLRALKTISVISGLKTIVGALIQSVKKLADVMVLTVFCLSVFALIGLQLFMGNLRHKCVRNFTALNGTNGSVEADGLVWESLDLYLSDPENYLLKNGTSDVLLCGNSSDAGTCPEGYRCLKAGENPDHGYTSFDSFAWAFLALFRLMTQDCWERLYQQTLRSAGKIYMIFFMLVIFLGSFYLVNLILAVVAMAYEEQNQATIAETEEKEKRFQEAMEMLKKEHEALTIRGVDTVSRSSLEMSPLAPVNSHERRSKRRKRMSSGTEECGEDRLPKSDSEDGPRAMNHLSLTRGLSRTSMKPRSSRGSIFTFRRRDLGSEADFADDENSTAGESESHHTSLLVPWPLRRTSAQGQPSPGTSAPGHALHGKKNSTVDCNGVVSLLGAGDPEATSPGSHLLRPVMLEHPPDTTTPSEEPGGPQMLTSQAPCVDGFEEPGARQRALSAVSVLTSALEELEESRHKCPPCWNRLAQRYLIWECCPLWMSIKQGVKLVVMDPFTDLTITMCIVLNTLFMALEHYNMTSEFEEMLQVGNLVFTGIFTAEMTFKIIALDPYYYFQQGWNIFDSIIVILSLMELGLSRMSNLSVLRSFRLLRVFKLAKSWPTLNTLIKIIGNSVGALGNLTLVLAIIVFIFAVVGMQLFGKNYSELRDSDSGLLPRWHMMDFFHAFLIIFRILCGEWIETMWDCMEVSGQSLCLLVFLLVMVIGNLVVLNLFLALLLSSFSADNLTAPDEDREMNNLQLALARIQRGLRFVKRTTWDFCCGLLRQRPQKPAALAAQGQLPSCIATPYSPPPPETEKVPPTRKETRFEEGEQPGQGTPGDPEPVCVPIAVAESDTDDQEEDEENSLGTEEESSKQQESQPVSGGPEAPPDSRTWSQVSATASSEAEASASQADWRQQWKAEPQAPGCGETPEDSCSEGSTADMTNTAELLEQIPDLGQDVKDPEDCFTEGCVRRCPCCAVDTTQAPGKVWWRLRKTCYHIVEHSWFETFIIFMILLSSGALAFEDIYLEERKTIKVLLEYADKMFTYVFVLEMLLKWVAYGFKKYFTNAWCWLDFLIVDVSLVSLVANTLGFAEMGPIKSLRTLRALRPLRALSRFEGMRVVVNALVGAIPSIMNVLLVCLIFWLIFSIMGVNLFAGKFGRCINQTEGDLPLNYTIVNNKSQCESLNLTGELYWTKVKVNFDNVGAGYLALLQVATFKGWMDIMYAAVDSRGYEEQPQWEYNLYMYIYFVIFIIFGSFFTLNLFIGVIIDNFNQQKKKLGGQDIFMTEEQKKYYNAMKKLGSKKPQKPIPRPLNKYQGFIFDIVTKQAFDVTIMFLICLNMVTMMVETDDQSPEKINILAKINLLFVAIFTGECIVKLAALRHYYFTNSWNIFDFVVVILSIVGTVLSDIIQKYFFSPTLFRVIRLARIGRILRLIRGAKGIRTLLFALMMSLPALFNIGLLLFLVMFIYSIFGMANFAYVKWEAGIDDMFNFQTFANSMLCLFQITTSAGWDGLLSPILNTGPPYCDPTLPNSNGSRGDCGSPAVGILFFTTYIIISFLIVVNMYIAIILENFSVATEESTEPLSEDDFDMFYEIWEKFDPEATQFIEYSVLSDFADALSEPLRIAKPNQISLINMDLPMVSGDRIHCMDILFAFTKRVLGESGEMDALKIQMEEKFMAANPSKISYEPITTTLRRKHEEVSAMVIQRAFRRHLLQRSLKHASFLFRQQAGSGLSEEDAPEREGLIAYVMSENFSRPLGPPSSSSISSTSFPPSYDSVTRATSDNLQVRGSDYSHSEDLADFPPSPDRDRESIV
Method: as §1, §2, §3, §4

[3] = target: hNaV1.7 (Homo sapiens (Human), UniProt Q15858); test: Ligand Binding Assay (LBA), radioligand displacement on hNaV1.7 HEK293 cell membranes; conditions: 0.5 nM [3H] radioligand, 24 hours at room temperature; read-out: NaV1.7 LBA IC50
hNaV1.7, sequence (Q15858 whole entry): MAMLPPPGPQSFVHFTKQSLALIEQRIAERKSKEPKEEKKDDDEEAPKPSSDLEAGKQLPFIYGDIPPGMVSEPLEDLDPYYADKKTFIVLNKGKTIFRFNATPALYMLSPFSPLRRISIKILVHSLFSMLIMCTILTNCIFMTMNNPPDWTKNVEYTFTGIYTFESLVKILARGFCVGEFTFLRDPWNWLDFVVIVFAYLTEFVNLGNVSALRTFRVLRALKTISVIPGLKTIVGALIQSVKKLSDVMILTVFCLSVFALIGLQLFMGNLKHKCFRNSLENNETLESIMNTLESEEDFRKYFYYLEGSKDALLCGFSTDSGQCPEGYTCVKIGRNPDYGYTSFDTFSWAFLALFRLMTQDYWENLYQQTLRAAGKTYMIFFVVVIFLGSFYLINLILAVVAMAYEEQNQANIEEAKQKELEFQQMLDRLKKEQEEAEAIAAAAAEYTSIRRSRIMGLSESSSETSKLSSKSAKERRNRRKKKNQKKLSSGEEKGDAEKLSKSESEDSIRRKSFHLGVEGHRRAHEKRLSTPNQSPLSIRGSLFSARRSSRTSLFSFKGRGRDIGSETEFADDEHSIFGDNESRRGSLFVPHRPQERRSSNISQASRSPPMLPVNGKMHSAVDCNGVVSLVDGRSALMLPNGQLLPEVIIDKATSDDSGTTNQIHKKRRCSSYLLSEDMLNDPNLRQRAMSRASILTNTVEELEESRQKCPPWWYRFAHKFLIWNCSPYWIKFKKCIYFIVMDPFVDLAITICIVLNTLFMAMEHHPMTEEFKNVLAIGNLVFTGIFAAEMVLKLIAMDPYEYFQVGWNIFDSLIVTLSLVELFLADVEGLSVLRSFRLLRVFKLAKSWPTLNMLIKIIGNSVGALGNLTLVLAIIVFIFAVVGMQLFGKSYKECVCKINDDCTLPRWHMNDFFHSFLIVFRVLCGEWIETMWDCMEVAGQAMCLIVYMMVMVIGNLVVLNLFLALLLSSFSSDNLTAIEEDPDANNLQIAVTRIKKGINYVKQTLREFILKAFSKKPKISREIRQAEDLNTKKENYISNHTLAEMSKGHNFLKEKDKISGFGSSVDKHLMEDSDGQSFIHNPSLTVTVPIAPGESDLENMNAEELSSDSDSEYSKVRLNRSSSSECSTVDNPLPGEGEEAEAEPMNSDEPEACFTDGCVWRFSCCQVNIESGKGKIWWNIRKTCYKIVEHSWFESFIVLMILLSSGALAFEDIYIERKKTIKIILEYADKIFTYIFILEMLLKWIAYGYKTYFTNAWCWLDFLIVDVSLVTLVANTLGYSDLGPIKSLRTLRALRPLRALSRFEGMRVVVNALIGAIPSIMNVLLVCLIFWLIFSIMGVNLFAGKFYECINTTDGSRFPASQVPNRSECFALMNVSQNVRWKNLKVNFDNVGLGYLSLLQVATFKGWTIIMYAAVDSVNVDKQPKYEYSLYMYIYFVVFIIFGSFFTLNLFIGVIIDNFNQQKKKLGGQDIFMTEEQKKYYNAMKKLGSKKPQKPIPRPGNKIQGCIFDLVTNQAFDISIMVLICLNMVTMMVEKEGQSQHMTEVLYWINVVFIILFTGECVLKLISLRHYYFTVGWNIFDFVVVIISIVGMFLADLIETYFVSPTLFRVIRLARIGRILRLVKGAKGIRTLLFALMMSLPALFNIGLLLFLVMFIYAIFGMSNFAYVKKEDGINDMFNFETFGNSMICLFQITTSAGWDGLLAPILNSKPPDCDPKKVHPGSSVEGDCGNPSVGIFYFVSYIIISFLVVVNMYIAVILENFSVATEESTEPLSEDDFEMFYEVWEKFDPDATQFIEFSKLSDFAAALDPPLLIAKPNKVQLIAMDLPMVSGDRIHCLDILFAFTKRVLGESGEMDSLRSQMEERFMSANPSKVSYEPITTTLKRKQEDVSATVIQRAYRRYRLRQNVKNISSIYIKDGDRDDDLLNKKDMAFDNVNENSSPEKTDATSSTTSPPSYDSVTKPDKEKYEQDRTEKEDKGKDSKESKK
Method: Ligand Binding Assay (LBA): hNaV1.7 binding affinities were determined with a filtration binding assay using purified membranes from HEK293 cells stably expressing hNaV1.7. HEK293 cells from a 10-stack cell culture flask (approximately 10^10 cells) were dissociated, frozen, and stored at −80° C. To prepare membranes, the frozen cell pellet was thawed and suspended in 6 ml hypotonic lysis buffer (50 mM HEPES, 0.1% mammalian protease inhibitor cocktail). 1 ml of resuspended cells was added to an additional 6 ml of lysis buffer and homogenized with 30 strokes of a tight pestle in a glass homogenizer. Homogenate was centrifuged at 1000×g for 10 minutes at 4° C. and the resulting supernatant was further centrifuged at 38,500×g for 60 minutes at 4° C. The resulting pellet was resuspended in binding buffer (50 mM HEPES, 130 mM NaCl, 5.4 mM KCl, 0.8 mM MgCl2, 5 mM glucose, pH 7.4) and needle homogenized with a 25 gauge needle. Protein concentration was determined with a BCA protein assay. Purified membranes were aliquoted, flash frozen in an ethyl alcohol dry ice bath, and stored at −80° C. To measure displacement of a radiolabeled ligand, 50 μg of purified hNaV1.7 HEK cell membranes were incubated with test compounds (eight concentrations, in duplicate) and 0.5 nM [3H] labeled radioligand in a 96 well plate for 24 hours at room temperature on a shaker. The total binding reaction volume was 250 μl, consisting of 200 μl purified hNaV1.7 HEK cell membranes, 25 μl test compound, and 25 μl radioligand. Non-specific binding was defined by 20 μM of a reference hNaV1.7 inhibitor. Binding reactions were terminated by filtration through GF/B filters presoaked in 0.5% polyethyleneamine. Filters were washed 5 times with 2 ml each of 4′C wash buffer (50 mM Tris-HCl, pH 7.4 at 4° C.). Bound radioactivity captured on the filters was counted on a liquid scintillation counter. Specific binding, expressed as % inhibition, was fit with Graphpad Prism software to determine binding IC50 values. Results are reported in Table 1 (NaV1.7 LBA IC50 in nM).

NaV1.7, sequence (Q15858 whole entry): as above

Row | SMILES | IC50 [1] | IC50 [2] | IC50 [3]
1 | CC(C)COc1ncc(-c2cn(C)c3cc(C(=O)NS(C)(=O)=O)c(F)cc23)cc1Cl [Example 42, 3-(5-Chloro-6-isobutoxypyridin-3-yl)-5-fluoro-1-methyl-N-(methylsulfonyl)-1H-indole-6-carboxamide] | 524 nM | 7180 nM | 11 nM
2 | CC(C)COc1ncc(-c2cn(C)c3cc(C(=O)NS(=O)(=O)C4CC4)c(F)cc23)cc1Cl [Example 43, 3-(5-Chloro-6-isobutoxypyridin-3-yl)-N-(cyclopropylsulfonyl)-5-fluoro-1-methyl-1H-indole-6-carboxamide] | 310 nM | 4850 nM | 3.4 nM
3 | CC(C)COc1ccc(-c2cn(C)c3cc(C(=O)NS(C)(=O)=O)c(F)cc23)cn1 [Example 44, 5-Fluoro-3-(6-isobutoxypyridin-3-yl)-1-methyl-N-(methylsulfonyl)-1H-indole-6-carboxamide] | 104 nM | 18700 nM | 86 nM
4 | CC(C)COc1ccc(-c2cn(C)c3cc(C(=O)NS(=O)(=O)C4CC4)c(F)cc23)cn1 [Example 45, N-(Cyclopropylsulfonyl)-5-fluoro-3-(6-isobutoxypyridin-3-yl)-1-methyl-1H-indole-6-carboxamide] | 59 nM | 3700 nM | 26 nM
5 | Cn1cc(-c2ccc(C(F)(F)F)cc2)c2cc(F)c(C(=O)NS(C)(=O)=O)cc21 [Example 46, 5-Fluoro-1-methyl-N-(methylsulfonyl)-3-(4-(trifluoromethyl)phenyl)-1H-indole-6-carboxamide] | 49 nM | > 30000 nM | 84 nM
6 | Cn1cc(-c2ccc(C(F)(F)F)cc2)c2cc(F)c(C(=O)NS(=O)(=O)C3CC3)cc21 [Example 47] | 16 nM | 3820 nM | 39 nM
7 | Cn1cc(-c2ccc(C(F)F)cc2)c2cc(F)c(C(=O)NS(C)(=O)=O)cc21 [Example 48, 3-(4-(Difluoromethyl)phenyl)-5-fluoro-1-methyl-N-(methylsulfonyl)-1H-indole-6-carboxamide] | 91 nM | > 30000 nM | 956 nM
8 | Cn1cc(-c2ccc(C(F)F)cc2)c2cc(F)c(C(=O)NS(=O)(=O)C3CC3)cc21 [Example 49, N-(Cyclopropylsulfonyl)-3-(4-(difluoromethyl)phenyl)-5-fluoro-1-methyl-1H-indole-6-carboxamide] | 38 nM | 9670 nM | 146 nM
